Measured values reported in the supplement of paper PMC10307832.

Tests used:
Test in all cases: relative viability (nuclei count vs DMSO), 5 days (fraction); higher = more cells survive
[1] = compound: CC1=NN=C(O1)C2=NN=C(C=C2)N3CCC(CC3)OC4=C(C=CC(=C4)F)Cl + CC(C)C[C@H](NC(=O)[C@H](Cc1ccccc1)NC(=O)c1cnccn1)B(O)O [Bortezomib] (partner 0.002 µM)
How it was run: (§1)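 Lung cancer cell lines were pin-tool dosed in 1536-well plates on the day after seeding, with either a lone drug or a fixed anchor-drug dose plus five library-drug doses (not always all listed) in √10 steps. Nuclei were counted on 4× images after 5 days. Relative viability is the ratio of treated-well to vehicle-well nuclei counts, with each value a median of duplicate plates.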

[2] = compound: CC(C)C[C@@H](C(=O)N[C@H](C(=O)OC1CCCC1)c1ccccc1)[C@H](O)C(=O)NO [Tosedostat] + Cc1nc(NC(=O)N2CCC[C@H]2C(N)=O)sc1-c1ccnc(C(C)(C)C(F)(F)F)c1 [Alpelisib] (partner 2 µM)
How it was run: as §1

[3] = compound: CC(C)C[C@@H](C(=O)N[C@H](C(=O)OC1CCCC1)c1ccccc1)[C@H](O)C(=O)NO [Tosedostat]
How it was run: (§2)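 Viability is treated-well nuclei as a fraction of vehicle-well nuclei, reported as the median across plates. Before counting, lung cancer cell lines were kept overnight at 37 °C in 1536-well plates, pinned with five √10-spaced library-drug doses on vehicle-anchored plates, and left 5 days without medium change, then fixed, permeabilised and Hoechst-stained in one step, imaged at 4× and counted by MetaXpress. A plate passed only if control CV was below 25% and at least one doubling occurred.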

[4] = compound: CC1=NN=C(O1)C2=NN=C(C=C2)N3CCC(CC3)OC4=C(C=CC(=C4)F)Cl
How it was run: as §2

Row | Cell Line | relative viability ([1]; first compound 0.253 µM) | relative viability ([1]; first compound 0.8 µM) | relative viability ([1]; first compound 2.53 µM) | relative viability ([1]; first compound 8 µM) | relative viability ([2]; first compound 0.02 µM) | relative viability ([2]; first compound 0.06325 µM) | relative viability ([2]; first compound 0.2 µM) | relative viability ([2]; first compound 0.6325 µM) | relative viability ([2]; first compound 2 µM) | relative viability ([3]; 0.02 µM) | relative viability ([3]; 0.06325 µM) | relative viability ([3]; 0.2 µM) | relative viability ([3]; 0.6325 µM) | relative viability ([3]; 2 µM) | relative viability ([4]; 0.253 µM) | relative viability ([4]; 0.8 µM) | relative viability ([4]; 2.53 µM) | relative viability ([4]; 8 µM)
1 | NCI-H2085 | 0.745 | 0.813 | 1.03 | 0.761 | 0.904 | 1.02 | 1.06 | 0.936 | 0.887 | 0.918 | 1.02 | 0.983 | 1.02 | 0.99 | 0.901 | 0.736 | 0.908 | 0.795
2 | CAL-12T | 1.01 | 0.867 | 0.86 | 0.696 | 1.28 | 1.14 | 1.3 | 0.988 | 0.872 | 1.16 | 0.948 | 1.03 | 0.892 | 0.784 | 0.935 | 0.859 | 0.821 | 0.742
3 | NCI-H1623 |  |  |  |  |  |  |  |  |  | 1.06 | 0.895 | 0.907 | 0.798 | 0.965 | 0.897 | 0.734 | 0.918 | 0.926
4 | HCC-44 | 0.449 | 0.43 | 0.398 | 0.431 | 0.684 | 0.874 | 0.767 | 0.886 | 0.544 | 1.09 | 1.01 | 0.982 | 0.905 | 0.628 | 0.492 | 0.542 | 0.509 | 0.517
5 | EKVX | 0.368 | 0.301 | 0.357 | 0.418 | 0.868 | 0.86 | 0.835 | 0.838 | 0.87 | 0.973 | 0.972 | 0.944 | 0.859 | 0.911 | 0.475 | 0.405 | 0.432 | 0.479
6 | NCI-H1734 | 0.65 | 0.592 | 0.824 | 0.805 | 0.672 | 0.647 | 0.742 | 0.593 | 0.646 | 1.1 | 0.903 | 0.959 | 0.866 | 0.822 | 0.954 | 0.729 | 0.966 | 0.859
7 | NCI-H1944 |  |  |  |  | 0.929 | 0.811 | 0.817 | 0.742 | 0.818 | 1.01 | 0.921 | 0.928 | 0.889 | 0.853 | 0.429 | 0.487 | 0.515 | 0.466
8 | NCI-H1792 | 0.405 | 0.423 | 0.401 | 0.494 | 0.761 | 0.745 | 0.649 | 0.602 | 0.67 | 1.01 | 1.11 | 0.963 | 0.828 | 1.07 | 0.748 | 0.741 | 0.833 | 0.846
9 | NCI-H358 |  |  |  |  | 0.881 | 0.824 | 0.688 | 0.538 | 0.442 | 1.11 | 0.866 | 0.782 | 0.452 | 0.425 | 0.628 | 0.563 | 0.589 | 0.49
10 | NCI-H1793 |  |  |  |  | 0.691 | 0.851 | 0.567 | 0.649 | 0.673 | 0.815 | 0.88 | 0.92 | 0.913 | 0.79 | 0.877 | 0.776 | 1.02 | 0.755
11 | NCI-H1650 |  | 0.202 | 0.17 | 0.197 |  |  |  |  |  | 0.895 | 0.85 | 0.94 | 0.911 | 0.98 |  | 0.756 | 0.749 | 0.722
12 | ChaGo-K-1 | 0.624 | 0.617 | 0.794 | 0.605 |  |  |  |  |  | 1.07 | 0.975 | 0.969 | 1.02 | 0.771 | 0.736 | 0.681 | 0.687 | 0.671
13 | NCI-H522 |  |  |  |  |  |  |  |  |  | 0.908 | 1.01 | 0.897 | 1.05 | 1.01 | 0.964 | 0.933 | 0.957 | 0.955
14 | NCI-H1648 |  |  |  |  |  |  |  |  |  | 1.01 | 0.923 | 0.881 | 0.935 | 0.578 | 0.435 | 0.462 | 0.56 | 0.496
15 | SK-MES-1 |  |  |  |  | 0.814 | 1 | 0.832 | 0.802 | 0.689 | 1.03 | 1.02 | 1.01 | 0.965 | 0.953 | 0.859 | 0.79 | 0.912 | 0.783
16 | NCI-H2342 |  |  |  |  |  |  |  |  |  | 0.954 | 0.998 | 0.986 | 0.944 | 0.94 | 0.678 | 0.675 | 0.604 | 0.525
17 | SW 900 |  |  |  |  |  |  |  |  |  | 0.887 | 0.952 | 0.855 | 0.767 | 0.669 |  | 0.545 | 0.805 | 0.574
18 | LK-2 |  |  |  |  | 1.55 | 1.03 | 1.13 | 1.27 | 1.11 | 1.13 | 1.11 | 0.926 | 0.954 | 1.13 | 0.965 | 0.823 | 1.01 | 1.02
19 | NCI-H1395 |  |  |  |  | 1.03 | 0.922 | 0.965 | 0.791 | 0.876 | 0.894 | 0.938 | 0.972 | 0.889 | 0.78 | 0.823 | 0.762 | 0.813 | 0.882
20 | A549 |  |  |  |  | 0.753 | 0.714 | 0.683 | 0.709 | 0.526 | 1.05 | 0.945 | 0.922 | 0.929 | 0.815 | 0.69 | 0.611 | 0.575 | 0.541
21 | NCI-H2170 |  |  |  |  | 0.742 | 0.829 | 0.835 | 0.777 | 0.862 | 0.997 | 0.963 | 1.02 | 0.984 | 0.89 | 0.481 | 0.52 | 0.607 | 0.444
